Columns and labels:
Type in all cases: in vivo
Details in all cases: 250 g/ha, evaluated after 13 days
[1] = tested on: Amaranthus palmeri (AMAPA); assay: Post-emergence herbicidal glasshouse test
Experimental: (§1) Seeds of a variety of test species are sown in standard soil in pots Amaranthus palmeri (AMAPA), Amaranthus retoflexus (AMARE), Echinochloa crus-galli (ECHCG), Ipomoea hederacea (IPOHE), Setaria faberi (SETFA). After cultivation for one day (pre-emergence) or after 8 days cultivation (post-emergence) under controlled conditions in a glasshouse (at 24/16 °C, day/night; 14 hours light; 65% humidity), the plants are sprayed with an aqueous spray solution derived from the formulation of the technical active ingredient in acetone/water (50:50) solution containing 0.5% Tween 20 (polyoxyethelyene sorbitan monolaurate, CAS RN 9005-64-5). Compounds are applied at 250 g/ha unless otherwise stated. The test plants are then grown in a glasshouse under controlled conditions in a glasshouse (at 24/16 °C, day/night; 14 hours light; 65% humidity) and watered twice daily. After 13 days for pre and post-emergence, the test is evaluated for the percentage damage caused to the plant. The biological activities are shown in the following table on a five-point scale (5=81-100%; 4=61-80%; 3=41-60%; 2=21-40%; 1=0-20%).

[2] = tested on: Amaranthus retoflexus (AMARE); assay: Post-emergence herbicidal glasshouse test
Experimental: as §1

[3] = tested on: Echinochloa crus-galli (ECHCG); assay: Post-emergence herbicidal glasshouse test
Experimental: as §1

[4] = tested on: Ipomoea hederacea (IPOHE); assay: Post-emergence herbicidal glasshouse test
Experimental: as §1

Setaria faberi (SETFA) [5] = assay: Post-emergence herbicidal glasshouse test
Experimental: as §1

[6] = tested on: Amaranthus palmeri (AMAPA); assay: Pre-emergence herbicidal glasshouse test
Experimental: as §1

[7] = tested on: Amaranthus retoflexus (AMARE); assay: Pre-emergence herbicidal glasshouse test
Experimental: as §1

[8] = tested on: Echinochloa crus-galli (ECHCG); assay: Pre-emergence herbicidal glasshouse test
Experimental: as §1

[9] = tested on: Ipomoea hederacea (IPOHE); assay: Pre-emergence herbicidal glasshouse test
Experimental: as §1

Setaria faberi (SETFA) [10] = assay: Pre-emergence herbicidal glasshouse test
Experimental: as §1

Row | SMILES | percentage damage caused to the plant (five-point scale), AMAPA [1] | percentage damage caused to the plant (five-point scale), AMARE [2] | percentage damage caused to the plant (five-point scale), ECHCG [3] | percentage damage caused to the plant (five-point scale), IPOHE [4] | percentage damage caused to the plant (five-point scale), SETFA (Setaria faberi (SETFA) [5]) | percentage damage caused to the plant (five-point scale), AMAPA [6] | percentage damage caused to the plant (five-point scale), AMARE [7] | percentage damage caused to the plant (five-point scale), ECHCG [8] | percentage damage caused to the plant (five-point scale), IPOHE [9] | percentage damage caused to the plant (five-point scale), SETFA (Setaria faberi (SETFA) [10])
1 | C=Cn1nc(C(F)F)cc1Cc1ncc(Cl)cn1 [Compound 1.037] | 3 (41-60%) | 4 (61-80%) | 2 (21-40%) | 2 (21-40%) | 2 (21-40%) | 5 (81-100%) | 5 (81-100%) | 1 (0-20%) | 3 (41-60%) | 1 (0-20%)
2 | FC(F)c1cc(Cc2ncc(Cl)cn2)n(CCn2ccc(C(F)(F)F)n2)n1 [Compound 1.038] | 1 (0-20%) | 1 (0-20%) | 1 (0-20%) | 1 (0-20%) | 1 (0-20%) | 2 (21-40%) | 1 (0-20%) | 2 (21-40%) | 1 (0-20%) | 2 (21-40%)
